Reference: patent publication US20060014740A1 (priority 2003, published 2006)
Counter-ions that a name gives are not always drawn. Like-named read-outs stand apart in the source and are kept apart here.

Legend:
[1] = tested on: RH7777 rat hepatoma cells; assay: SRB cytotoxicity assay, RH7777 control cell line; assay type: cell-based; settings: control cell line, 96 h, read-out: IC50 RH7777
Experimental: (§1) For in vitro cytotoxicity screening, 1000 to 5000 cells were plated into each well of 96-well plates depending on growth rate, and exposed to different concentrations of a test compound for 96 h in three to five replicates. All the compounds were dissolved in dimethyl sulfoxide at 5 to 20 mM, and diluted to desired concentrations in complete culture medium. Cell numbers at the end of the drug treatment were measured by the SRB assay (Gududuru et al., “Synthesis and Biological Evaluation of Novel Cytotoxic Phospholipids for Prostate Cancer,” Bioorg. Med. Chem. Lett. 14:4919-4923 (2004); Rubinstein et at., “Comparison of in vitro Anticancer-Drug-Screening Data Generated with a Tetrazolium Assay Versus a Protein Assay Against a Diverse Panel of Human Tumor Cell Lines,” J. Naatl, Cancer Inst. 82:1113-1118 (1990), each of which is hereby incorporated by reference in its entirety). Briefly, the cells were fixed with 10% of trichloroacetic acid, stained with 0.4% SRB, and the absorbances at 540 nm was measured using a plate reader (DYNEX Technologies, Chantilly, Va.).
(§2) The antiproliferative activity of all the synthesized compounds was evaluated against five human prostate cancer cell lines and in RH7777 cells (negative control) using the sulforhodamine B (SRB) assay (see description in Example 5 above).
(§3) The chosen cell lines represent different basal levels of active AKT and LPL receptor expression (discussed later). Cells were exposed to a wide range of concentrations (0 to 100 μM) of the indicated compound for 96 h. Cell numbers at the end of treatment were measured using the sulforhodamine B (SRB) assay^5.
(§4) Cells were exposed to a wide range of concentrations (0 to 100 μM) of the particular compound for 96 h in 96 well plates. Cells were fixed with 10% trichloroacetic acid, washed five times with water. The plates were air dried overnight and fixed cells were stained with SRB solution. The cellular protein-bound SRB was measured at 540 nm using a plate reader. Cell numbers at the end of the treatment were measured.
as §4, with “96-well” for “96 well”, “calculated as a percentage of untreated control.” for “measured.”

[2] = tested on: DU-145 human prostate cancer cells; assay: SRB cytotoxicity assay, DU-145; assay type: cell-based; settings: 96 h
Experimental: as §1, §2, §3, §4
as §4, with “96-well” for “96 well”, “calculated as a percentage of untreated control.” for “measured.”

[3] = tested on: PC-3 human prostate cancer cells; assay: SRB cytotoxicity assay, PC-3; assay type: cell-based; settings: 96 h, read-out: IC50 PC-3
Experimental: as §1, §2, §3, §4
as §4, with “96-well” for “96 well”, “calculated as a percentage of untreated control.” for “measured.”

[4] = tested on: LNCaP human prostate cancer cells; assay: SRB cytotoxicity assay, LNCaP; assay type: cell-based; settings: 96 h, read-out: IC50 LNCaP
Experimental: as §1, §2, §3, §4
as §4, with “96-well” for “96 well”, “calculated as a percentage of untreated control.” for “measured.”

[5] = tested on: PPC-1 human prostate cancer cells; assay: SRB cytotoxicity assay, PPC-1; assay type: cell-based; settings: Homo sapiens, PPC-1, 96 h, read-out: IC50 PPC-1
Experimental: (§5) Dr. Mitchell Steiner at University of Tennessee Health Science Center, kindly provided PPG-1 and TSU-PrI cells.
as §1, §2, §3, §4
as §4, with “96-well” for “96 well”, “calculated as a percentage of untreated control.” for “measured.”

[6] = tested on: TSU-Pr1 human prostate cancer cells; assay: SRB cytotoxicity assay, TSU-Pr1; assay type: cell-based; settings: 96 h, read-out: IC50 TSU-Pr1
Experimental: as §5, §1, §2, §3, §4
as §4, with “96-well” for “96 well”, “calculated as a percentage of untreated control.” for “measured.”

[7] = tested on: human breast cancer cell line (MCF-7); assay: SRB cytotoxicity assay, MCF-7; assay type: cell-based; settings: Homo sapiens, MCF7; Table 8; breast cancer cell line; read-out: IC50 MCF-7
Experimental: as §1
(§6) In vitro cytotoxicity assay was performed by the same sulforhodamine B (SRB) assay (described above). The compounds shown in Table 8 below where tested for activity against the breast cancer and ovarian cancer cell lines.
as §3, §4

[8] = tested on: CaOv-3 human ovarian cancer cell line; assay: SRB cytotoxicity assay, CaOv-3; assay type: cell-based; settings: Table 8
Experimental: as §1, §6

[9] = tested on: OVCAR-3 human ovarian cancer cell line; assay: SRB cytotoxicity assay, OVCAR-3; assay type: cell-based; settings: Table 8
Experimental: as §1, §6

[10] = tested on: SKOv-3 human ovarian cancer cell line; assay: SRB cytotoxicity assay, SKOv-3; assay type: cell-based; settings: Table 8
Experimental: as §1, §6

[11] = Rattus norvegicus, RH7777, Table 4
[12] = Homo sapiens, DU-145, read-out: IC50 DU-145, Table 4
[13] = Rattus norvegicus, RH7777, Table 3
[14] = Homo sapiens, DU-145, read-out: IC50 DU-145, Table 3

SMILES	melting point [°C]	IC50 [1, 11] [µM]	IC50 [2, 12] [µM]	IC50 ([3]; Homo sapiens, Table 4) [µM]	IC50 ([4]; Homo sapiens, LNCaP, Table 4) [µM]	IC50 ([5]; Table 4) [µM]	IC50 ([6]; Homo sapiens, TSU-Pr1, Table 4) [µM]	IC50 [7] [µM]	IC50 [1, 13] [µM]	IC50 [2, 14] [µM]	IC50 ([3]; Homo sapiens, Table 3) [µM]	IC50 ([4]; Homo sapiens, LNCaP, Table 3) [µM]	IC50 ([5]; Table 3) [µM]	IC50 ([6]; Homo sapiens, TSU-Pr1, Table 3) [µM]	further results
CCCCCCCCCCCCCCCCCCNC(=O)[C@@H]1CSC(c2ccc(Br)cc2)N1 (mixture of isomers) [Compound 20, (2RS, 4R)-2-(4-Bromo-phenyl)-thiazolidine-4-carboxylic acid octadecylamide]	81	> 20	13.8	17.3	5.1	3.7	18.3	16.6	–	–	–	–	–	–	–
CCCCCCCCCCCCCCCCCCNC(=O)[C@@H]1CSC(c2ccc(F)c(Br)c2)N1 (mixture of isomers) [Compound 25, (2RS, 4R)-2-(3-Bromo-4-fluoro-phenyl)-thiazolidine-4-carboxylic acid octadecylamide]	100	~20	11.3	13.5	3	4.7	14	15.3	–	–	–	–	–	–	–
CCCCCCCCCCCCCCCCCCNC(=O)[C@@H]1CSC(c2ccc(OC)c(OC)c2)N1 (mixture of isomers) [Compound 16-HCI, (2RS, 4R)-2-(3,4-Dimethoxy-phenyl)-thiazolidine-4-carboxylic add octadecylamide Hydrochloride]	–	–	–	–	–	–	–	–	–	–	–	–	–	–	IC50 ([1]; Table 3): 10.3 µM; IC50 ([2]; read-out: IC50 DU-145, Table 3): 4.5 µM; IC50 ([3]; Table 3): 5.2 µM; IC50 ([4]; Table 3): 0.85 µM; IC50 ([6]; Table 3): 2.4 µM; IC50 [8]: 5.5 µM; IC50 [9]: 1200 nM; IC50 [10]: 3.6 µM
CCCCCCCCCCCCCCCCCCNC(=O)[C@@H]1CSC(c2ccc([N+](=O)[O-])cc2)N1 (mixture of isomers) [Compound 21, (2RS, 4R)-2-(4-Nitro-phenyl)-thiazolidine-4-carboxylic acid octadecylamide]	115	~20	15.3	~20	8.4	15.3	15.9	16.3	–	–	–	–	–	–	–
CCCCCCCCCCCCCCCCCCNC(=O)[C@@H]1CSC(c2ccc(N(C)C)cc2)N1 (mixture of isomers) [Compound 13, (2RS, 4R)-2-(4-Dimethylamino-phenyl)-thiazolidine-4-carboxylic acid octadecylamide]	75	–	–	–	–	–	–	13.5	> 20	5.3	6	1.6	1.1	3	–

Further lines, with some results ahead:

melting point [°C]	SMILES	IC50 [1, 11] [µM]	IC50 [2, 12] [µM]	IC50 ([3]; Homo sapiens, Table 4) [µM]	IC50 ([4]; Homo sapiens, LNCaP, Table 4) [µM]	IC50 ([5]; Table 4) [µM]	IC50 ([6]; Homo sapiens, TSU-Pr1, Table 4) [µM]	IC50 [7] [µM]	IC50 [1, 13] [µM]	IC50 [2, 14] [µM]	IC50 ([3]; Homo sapiens, Table 3) [µM]	IC50 ([4]; Homo sapiens, LNCaP, Table 3) [µM]	IC50 ([5]; Table 3) [µM]	IC50 ([6]; Homo sapiens, TSU-Pr1, Table 3) [µM]	further results
120	CCCCCCCCCCCCCCCCCCNC(=O)[C@@H]1CSC(c2ccc(C)cc2)N1 (mixture of isomers) [Compound 26, (2RS, 4R)-2 p-Tolyl-thiazolidine-4-carboxylic acid octadecylamide]	> 20	10.5	12.8	1.9	1.9	8	10.3	–	–	–	–	–	–	–
94	CCCCCCCCCCCCCCCCCCNC(=O)[C@@H]1CSC(c2cccnc2)N1 (mixture of isomers) [Compound 11, (2RS, 4R)-2-Pyridin-3-yl-thiazolidine-4-carboxylic acid octadecylamide]	–	–	–	–	–	–	9.3	10.5	7.5	9.2	3.6	2.9	7.8	–
60	CCCCCCCCCCCCCCCCCCNC(=O)[C@@H]1CSC(C2CCCCC2)N1 (mixture of isomers) [Compound 8, (2RS, 4R)-2-Cyclohexylthiazolidine-4-carboxylic acid octadecylamide]	–	–	–	–	–	–	~20	> 20	> 20	> 20	12.8	9.3	> 20	–
